Test results published in patent publication US20100256214A1, “EPH RECEPTOR LIGANDS AND METHODS OF USE” (Burnham Institute for Medical Research, priority 2009, published 2010).

Target: EphA2 (Homo sapiens, UniProt P29317)
Assay: EphA2 tyrosine phosphorylation in PC3 cells
Format: cell-based
Set-up: endogenous in cells; host or cells: PC3
Description: FIGS. 9A-9G. A. PC3 cells pretreated for 15 min with the indicated concentrations of compound 1 or compound 2 were stimulated with 0.5 μg/mL ephrin-A1 Fc (+) or Fc as a control (−) for 20 min in the continued presence of the compounds. EphA2 immunoprecipitates were probed with anti-phosphotyrosine antibody (PTyr) and reprobed for EphA2. C indicates immunoprecipitations performed with control antibodies. B. Histogram showing the levels of EphA2 phosphorylation normalized to the amount of immunoprecipitated EphA2. Error bars indicate standard error from 3 experiments. Receptor phosphorylation levels were compared with those in the ephrin-stimulated cells by one-way ANOVA and Dunnett's post test. *P<0.05 and *P<0.01. C. PC3 cells stimulated with compound 1 as in (A) were stained with rhodamine-phalloidin to label actin filaments and DAPI to label nuclei. DMSO was used as a control (0 μM). […] Cells having rounded shape and area less than 20% of the mean value obtained for the Fc stimulated cells were scored as retracting. […]
Measurement of Receptor Tyrosine Phosphorylation in Cells—HT22 neuronal cells, which endogenously express EphA4, are derived from immortalized mouse hippocampal neurons (Li et al. (1997) Neuron 19(2), 453-463). […] The protein concentration was calculated using the BCA protein assay kit (Pierce Biotecnology, Rockford, Ill.). […]

Sequence of EphA2 (P29317 24-976): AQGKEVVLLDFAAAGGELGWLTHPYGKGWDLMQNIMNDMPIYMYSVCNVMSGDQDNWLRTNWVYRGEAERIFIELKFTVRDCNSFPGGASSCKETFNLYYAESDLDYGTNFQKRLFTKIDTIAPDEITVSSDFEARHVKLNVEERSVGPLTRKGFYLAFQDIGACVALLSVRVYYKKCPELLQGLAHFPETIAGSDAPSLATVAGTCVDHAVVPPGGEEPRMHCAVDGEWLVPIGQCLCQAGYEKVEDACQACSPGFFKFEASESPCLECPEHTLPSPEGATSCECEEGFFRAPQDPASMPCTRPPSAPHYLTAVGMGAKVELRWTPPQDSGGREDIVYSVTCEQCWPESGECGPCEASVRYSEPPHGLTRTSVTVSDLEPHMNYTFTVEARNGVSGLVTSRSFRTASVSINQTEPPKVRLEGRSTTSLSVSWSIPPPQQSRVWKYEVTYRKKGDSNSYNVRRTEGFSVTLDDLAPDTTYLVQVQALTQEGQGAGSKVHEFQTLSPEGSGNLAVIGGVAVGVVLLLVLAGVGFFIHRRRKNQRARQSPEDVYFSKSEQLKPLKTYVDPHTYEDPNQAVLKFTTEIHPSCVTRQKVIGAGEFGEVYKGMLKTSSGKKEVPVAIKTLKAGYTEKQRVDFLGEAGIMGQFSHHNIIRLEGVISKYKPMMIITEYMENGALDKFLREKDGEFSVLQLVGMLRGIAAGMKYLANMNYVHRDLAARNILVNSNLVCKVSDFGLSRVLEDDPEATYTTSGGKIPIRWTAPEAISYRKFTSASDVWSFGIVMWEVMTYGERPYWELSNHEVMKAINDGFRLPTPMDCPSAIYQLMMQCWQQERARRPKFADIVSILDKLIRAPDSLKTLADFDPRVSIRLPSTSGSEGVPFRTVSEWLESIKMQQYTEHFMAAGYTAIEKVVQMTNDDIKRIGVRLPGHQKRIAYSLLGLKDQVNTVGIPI

| SMILES | EphA2 activation following stimulation with ephrin-A1 Fc |
| --- | --- |
| Cc1ccc(C)n1-c1ccc(C(=O)O)c(O)c1 [compound 1, 4-(2,5-dimethyl-pyrrol-1-yl)-2-hydroxy-benzoic acid] | blocked |
| Cc1ccc(C)n1-c1ccc(O)c(C(=O)O)c1 [compound 2, 5-(2,5 dimethyl-pyrrol-1-yl)-2-hydroxy-benzoic acid] | blocked |
